Laboratory results published in patent US20210300913A1, “DEUTERATED DERIVATIVES OF LANIFIBRANOR” (lNVENTlVA, priority 2018, published 2021).
pEC50: −log10 of the molar value.

Key:
Assay type in all cases: cell-based
[1] = target: T1, human receptor PPARδ-Gal4 (Homo sapiens, UniProt Q03181); test: PPAR-Gal4 transactivation test in transfected Cos-7 cells (luciferase reporter), PPARδ; conditions: for Human receptor PPARδ Top: induction as percentage of reference GW501516 at 10^-8 M (=100%); for pEC50: Cos-7 cells, overnight incubation
T1 sequence (Q03181 171-441 limits assumed): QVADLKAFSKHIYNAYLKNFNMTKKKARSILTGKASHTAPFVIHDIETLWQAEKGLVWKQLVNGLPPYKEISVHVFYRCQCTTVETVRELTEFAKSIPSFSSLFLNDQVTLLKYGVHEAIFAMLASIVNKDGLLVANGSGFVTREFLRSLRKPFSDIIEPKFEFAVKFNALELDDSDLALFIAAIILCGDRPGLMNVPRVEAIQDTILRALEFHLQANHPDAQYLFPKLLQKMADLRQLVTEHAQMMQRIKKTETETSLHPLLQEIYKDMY
Description: (§1) A transactivation test was used as the primary screening test. Cos-7 cells were transfected with a plasmid expressing a chimera of a murine or human receptor PPAR-Gal4 (receptor PPARα-Gal4 or PPARδ-Gal4 or PPARγ-Gal4) and of a reporter plasmid 5Gal4pGL3 TK Luc. The transfections were carried out using a chemical agent (Jet PEI). Transfected cells were distributed into 384 well plates and allowed to stand for 24 hours. At 24 hours the culture medium was changed. The products to be tested were added (final concentration between 10^−4 and 3.10^−10 M) to the culture medium. After overnight incubation, luciferase expression was measured after addition of “SteadyGlo” according to the manufacturer's instructions (Promega).
(§2) Fenofibric acid at 10^−5 M (PPARα agonist), GW501516 at 10^−8 M (PPARδ agonist) and rosiglitazone at 10^−6 M (PPARγ agonist) were used as references.
(§3) The results are expressed as the induction rate (number of times) compared to the basal level as a percentage of activity of the adequate reference (reference=100%). Effect-concentration curves and EC50 were calculated using Assay Explorer (MDL) software.

[2] = target: T2, human receptor PPARγ-Gal4 (Homo sapiens, UniProt P37231); test: PPAR-Gal4 transactivation test in transfected Cos-7 cells (luciferase reporter), PPARγ; conditions: for Human receptor PPARγ Top: induction as percentage of reference rosiglitazone at 10^-6 M (=100%); for pEC50: Cos-7 cells, overnight incubation
T2 sequence (P37231 238-505 limits assumed): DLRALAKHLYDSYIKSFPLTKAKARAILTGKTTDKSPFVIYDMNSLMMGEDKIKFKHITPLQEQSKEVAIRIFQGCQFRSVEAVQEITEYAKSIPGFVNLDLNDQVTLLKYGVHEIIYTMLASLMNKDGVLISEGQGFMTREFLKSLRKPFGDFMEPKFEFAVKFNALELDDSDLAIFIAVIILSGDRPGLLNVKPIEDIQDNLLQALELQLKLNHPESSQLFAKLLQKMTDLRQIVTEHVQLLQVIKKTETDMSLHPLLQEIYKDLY
Description: as §1, §2, §3

[3] = target: T3, human receptor PPARα-Gal4 (Homo sapiens, UniProt Q07869); test: PPAR-Gal4 transactivation test in transfected Cos-7 cells (luciferase reporter), PPARα; conditions: for Human receptor PPARα Top: induction as percentage of reference fenofibric acid at 10^-5 M (=100%); for pEC50: Cos-7 cells, overnight incubation
T3 sequence (Q07869 200-468 limits assumed): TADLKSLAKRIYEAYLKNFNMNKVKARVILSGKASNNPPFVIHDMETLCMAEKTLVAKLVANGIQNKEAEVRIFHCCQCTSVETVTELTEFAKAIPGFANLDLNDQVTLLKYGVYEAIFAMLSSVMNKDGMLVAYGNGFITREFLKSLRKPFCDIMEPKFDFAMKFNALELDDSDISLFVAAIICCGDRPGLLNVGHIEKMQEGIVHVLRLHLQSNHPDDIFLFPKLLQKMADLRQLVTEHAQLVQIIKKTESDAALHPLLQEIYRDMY
Description: as §1, §2, §3

| Compound | Human receptor PPARδ Top [1] [%] | Human receptor PPARγ Top [2] [%] | Human receptor PPARα Top [3] [%] | pEC50 [1] | pEC50 [2] | pEC50 [3] |
| --- | --- | --- | --- | --- | --- | --- |
| [2H]c1nc2ccc(S(=O)(=O)n3c(CCCC(=O)O)cc4cc(Cl)ccc43)cc2s1 [Example 1] | 80 | 53 | 67 |  |  |  |
| [2H]C([2H])(C(=O)O)C([2H])([2H])C([2H])([2H])c1cc2cc(Cl)ccc2n1S(=O)(=O)c1ccc2ncsc2c1 [Example 2, 4-[1-(1,3-Benzothiazol-6-ylsulfonyl)-5-chloro-indol-2-yl]-2,2,3,3,4,4-hexadeuteriobutanoic acid] | 80 | 50 | 62 | 5.93 | 6.87 | 5.64 |
| O=C(O)CCCc1cc2cc(Cl)ccc2n1S(=O)(=O)c1ccc2ncsc2c1 [Example 1] |  |  |  | 6.02 | 7.07 | 5.64 |
